# Source: patent publication US6759547B1, “5,6,7,8-tetrahydronaphthalen-2-yl 2,6-difluoroheptatrienoic acid derivatives having serum glucose reducing activity” (Allergan, Inc., priority 2003, dated 2004)
# Columns and labels:
# RARβ [1] = target: T1, RARβ (Homo sapiens, UniProt P10826); assay: chimeric receptor transactivation assay, RARβ; assay type: cell-based; conditions: for EC50: chimeric assay, read-out: RAR Trans. EC50 β; for RAR Trans. efficacy β: efficacy as a percentage compared to the standard compound
# T1 sequence (P10826 183-417 limits assumed): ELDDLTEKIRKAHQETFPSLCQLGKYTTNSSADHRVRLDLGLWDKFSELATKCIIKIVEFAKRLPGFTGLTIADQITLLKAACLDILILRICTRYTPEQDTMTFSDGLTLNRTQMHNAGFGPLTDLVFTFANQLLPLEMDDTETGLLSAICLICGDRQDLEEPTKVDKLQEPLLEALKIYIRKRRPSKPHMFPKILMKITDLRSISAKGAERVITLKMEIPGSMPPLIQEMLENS
# Source text: One such assay is a chimeric receptor transactivation assay which tests for agonist-like activity in the RARα RARβ and RARγ receptor subtypes, and which is based on work published by Feigner P. L. and Holm M. (1989) Focus, 112 is described in detail in U.S. Pat. No. 5,455,265. The specification of U.S. Pat. No. 5,455,265 is hereby expressly incorporated by reference.
# Table 1 discloses the activity of certain exemplary compounds of the invention in the above-described receptor transactivation and binding assays. Particularly, the transactivation data pertaining to activation of the RAR receptors were obtained in the chimeric assay, and the transactivation data pertaining to the activation of RXR receptors were obtained in the holoreceptor assay.
# RXRα [2] = target: T2, RXRα (Homo sapiens, UniProt P19793); assay: holoreceptor transactivation assay, RXRα; assay type: cell-based; conditions: for RXR Trans. efficacy α: efficacy as a percentage compared to the standard compound; for EC50: holoreceptor assay, read-out: RXR Trans. EC50 α
# T2 construct: expressed in transfected cells
# T2 sequence (P19793 1-462): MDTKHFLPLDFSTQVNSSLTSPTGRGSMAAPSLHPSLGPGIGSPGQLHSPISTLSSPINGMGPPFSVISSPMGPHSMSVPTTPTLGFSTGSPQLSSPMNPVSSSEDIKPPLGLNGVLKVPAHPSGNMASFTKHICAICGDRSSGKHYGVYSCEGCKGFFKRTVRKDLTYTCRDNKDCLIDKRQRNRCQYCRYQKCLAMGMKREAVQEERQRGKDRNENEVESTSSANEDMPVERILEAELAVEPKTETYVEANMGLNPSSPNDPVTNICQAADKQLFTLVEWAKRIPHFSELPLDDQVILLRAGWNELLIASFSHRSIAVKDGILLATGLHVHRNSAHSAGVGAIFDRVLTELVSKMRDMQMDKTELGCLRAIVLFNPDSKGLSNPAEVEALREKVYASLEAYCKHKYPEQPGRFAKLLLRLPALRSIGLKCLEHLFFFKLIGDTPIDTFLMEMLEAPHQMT
# Source text: Particularly, the transactivation data pertaining to activation of the RAR receptors were obtained in the chimeric assay, and the transactivation data pertaining to the activation of RXR receptors were obtained in the holoreceptor assay.
# RARβ [3] = target: T3, RARβ (Homo sapiens, UniProt P10826); assay: ligand binding assay, RARβ; conditions: read-out: RAR Bind. K1 β
# T3 sequence (P10826 1-455): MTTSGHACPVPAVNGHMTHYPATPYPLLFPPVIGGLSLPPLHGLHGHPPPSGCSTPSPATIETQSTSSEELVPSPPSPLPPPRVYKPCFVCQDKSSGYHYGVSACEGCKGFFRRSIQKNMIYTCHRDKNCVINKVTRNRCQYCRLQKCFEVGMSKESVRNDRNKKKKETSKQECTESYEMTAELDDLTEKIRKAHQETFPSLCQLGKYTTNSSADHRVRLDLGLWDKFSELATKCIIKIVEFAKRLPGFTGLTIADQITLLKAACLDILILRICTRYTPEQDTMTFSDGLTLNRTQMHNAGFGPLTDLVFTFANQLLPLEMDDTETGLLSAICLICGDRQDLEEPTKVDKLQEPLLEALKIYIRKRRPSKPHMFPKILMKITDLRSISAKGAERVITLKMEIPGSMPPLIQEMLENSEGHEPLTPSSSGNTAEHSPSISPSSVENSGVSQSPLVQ
# Source text: (§1) The results obtained in this assay are expressed in EC50 numbers, as they are also in the chimeric receptor transactivation assay. The results of the ligand binding assay are expressed in Ki numbers.
# RARγ = target: T4, RARγ (Homo sapiens, UniProt P13631); assay: ligand binding assay, RARγ; conditions: read-out: RAR Bind. K1 γ
# T4 sequence (P13631 1-454): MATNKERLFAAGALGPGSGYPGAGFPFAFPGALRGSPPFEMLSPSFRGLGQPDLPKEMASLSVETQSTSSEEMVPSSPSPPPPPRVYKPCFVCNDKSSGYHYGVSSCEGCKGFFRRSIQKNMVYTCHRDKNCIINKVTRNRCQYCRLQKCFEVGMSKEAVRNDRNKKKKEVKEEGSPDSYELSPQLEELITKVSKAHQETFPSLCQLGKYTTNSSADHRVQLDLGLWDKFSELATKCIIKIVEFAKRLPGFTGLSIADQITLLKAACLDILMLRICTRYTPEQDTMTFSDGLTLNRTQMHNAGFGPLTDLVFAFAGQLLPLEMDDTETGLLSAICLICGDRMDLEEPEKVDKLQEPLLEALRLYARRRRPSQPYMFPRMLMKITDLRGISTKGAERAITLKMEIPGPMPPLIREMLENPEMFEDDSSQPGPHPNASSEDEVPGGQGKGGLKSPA
# Source text: as §1
# RXRα [4] = target: T2, RXRα; assay: ligand binding assay, RXRα; conditions: read-out: RXR Bind K1 α
# Source text: as §1
# RXRβ = target: T5, RXRβ (Homo sapiens, UniProt P28702); assay: ligand binding assay, RXRβ; conditions: read-out: RXR Bind K1 β
# T5 construct: expressed in transfected cells
# T5 sequence (P28702 1-533): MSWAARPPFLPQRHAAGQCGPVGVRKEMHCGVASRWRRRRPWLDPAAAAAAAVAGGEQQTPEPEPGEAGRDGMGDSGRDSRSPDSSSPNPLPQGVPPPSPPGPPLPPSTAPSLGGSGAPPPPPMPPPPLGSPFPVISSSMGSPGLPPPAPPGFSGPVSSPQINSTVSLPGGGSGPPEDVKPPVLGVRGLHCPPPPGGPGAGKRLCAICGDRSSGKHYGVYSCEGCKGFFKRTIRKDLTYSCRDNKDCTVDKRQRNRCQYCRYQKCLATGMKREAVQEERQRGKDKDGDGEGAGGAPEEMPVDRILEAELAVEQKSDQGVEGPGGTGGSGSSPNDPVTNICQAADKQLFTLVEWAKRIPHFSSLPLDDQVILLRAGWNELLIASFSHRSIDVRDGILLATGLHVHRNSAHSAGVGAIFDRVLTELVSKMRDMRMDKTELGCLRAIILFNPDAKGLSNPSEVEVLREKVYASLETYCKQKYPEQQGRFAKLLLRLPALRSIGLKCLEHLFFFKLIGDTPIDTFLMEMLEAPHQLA
# Source text: The results of the ligand binding assay are expressed in Ki numbers.
EC50 (RARβ [1]),RAR Trans. efficacy β (RARβ [1]),RXR Trans. efficacy α (RXRα [2]),EC50 (RXRα [2]),Ki (RARβ [3]),Ki (RARγ),Ki (RXRα [4]),Ki (RXRβ),SMILES
> 1000 nM,25%,7%,3 nM,1720 nM,250 nM,11 nM,65 nM,"CCCOc1cc2c(cc1\C(C)=C(F)/C=C/C(C)=C(\F)C(=O)O)C(C)(C)CCC2(C)C [Compound 11, (2Z,4E,6E)-2,6-Difluoro-3-methyl-7-(5,5,8,8-tetramethyl-3-propoxy-5,6,7,8-tetrahydro-naphthalen-2-yl)-octa-2,4,6-trienoic acid]"
170 nM,24%,41%,9 nM,590 nM,940 nM,12 nM,60 nM,"CC/C(=C(F)/C=C/C(C)=C(\F)C(=O)O)c1cc2c(cc1OCOC)C(C)(C)CCC2(C)C [Compound 21, (2Z,4E,6E)-2,6-Difluoro-7-(3-methoxymethoxy-5,5,8,8-tetramethyl-5,6,7,8-tetrahydro-naphthalen-2-yl)-3-methyl-nona-2,4,6-trienoic acid]"
95 nM,14%,30%,4 nM,1800 nM,6400 nM,5 nM,20 nM,"CCOc1cc2c(cc1\C(CC)=C(F)/C=C/C(C)=C(\F)C(=O)O)C(C)(C)CCC2(C)C [Compound 27, (2Z,4E,6E)-7-(3-Ethoxy-5,5,8,8-tetramethyl-5,6,7,8-tetrahydro-naphthalen-2-yl)-2,6-difluoro-3-methyl-nona-2,4,6-trienoic acid]"
